According to US20220056019A1, “FARNESOID X RECEPTOR AGONISTS AND USES THEREOF” (Metacrine, Inc., priority 2018, published 2022):

target: T1, hFXR (Homo sapiens, UniProt Q96RI1); experiment: In Vitro FXR Assay (TK): TK-ECRE-luc reporter in transfected CV-1 cells; format: cell-based; details: 18 hrs incubation, luminescence
T1 construct: expressed in transfected cells; host or cells: CV-1 cells
T1 sequence (Q96RI1 1-486): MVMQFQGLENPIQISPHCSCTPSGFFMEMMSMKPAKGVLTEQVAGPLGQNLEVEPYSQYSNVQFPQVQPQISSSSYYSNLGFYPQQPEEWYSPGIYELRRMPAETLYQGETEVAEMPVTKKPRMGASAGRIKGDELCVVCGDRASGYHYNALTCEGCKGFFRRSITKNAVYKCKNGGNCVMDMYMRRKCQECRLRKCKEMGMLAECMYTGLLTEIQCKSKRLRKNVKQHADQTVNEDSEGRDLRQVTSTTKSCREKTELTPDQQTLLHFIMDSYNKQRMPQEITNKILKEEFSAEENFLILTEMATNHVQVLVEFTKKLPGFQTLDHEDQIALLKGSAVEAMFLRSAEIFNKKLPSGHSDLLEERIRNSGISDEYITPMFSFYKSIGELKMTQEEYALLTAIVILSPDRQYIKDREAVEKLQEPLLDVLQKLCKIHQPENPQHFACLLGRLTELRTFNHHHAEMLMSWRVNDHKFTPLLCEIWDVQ
T1 sequence (P19793 1-462 partner): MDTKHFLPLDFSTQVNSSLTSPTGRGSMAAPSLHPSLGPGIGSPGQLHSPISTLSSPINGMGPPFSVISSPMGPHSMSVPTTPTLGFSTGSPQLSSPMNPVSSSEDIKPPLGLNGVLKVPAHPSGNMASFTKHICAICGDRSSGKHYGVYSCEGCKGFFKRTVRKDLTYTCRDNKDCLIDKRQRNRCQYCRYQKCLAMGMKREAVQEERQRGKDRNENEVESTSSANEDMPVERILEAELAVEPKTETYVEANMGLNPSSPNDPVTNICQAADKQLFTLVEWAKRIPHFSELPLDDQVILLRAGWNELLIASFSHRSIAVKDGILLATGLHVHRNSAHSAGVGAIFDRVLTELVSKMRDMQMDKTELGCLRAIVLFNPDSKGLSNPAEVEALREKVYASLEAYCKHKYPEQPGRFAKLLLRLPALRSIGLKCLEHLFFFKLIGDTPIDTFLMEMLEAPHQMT
In short: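 Luminescence from a TK-ECRE-luc reporter was read after 18 h of compound exposure in CV-1 cells. These cells were grown in charcoal-stripped FBS medium and transiently transfected with hFXR, hRXR and YFP expression plasmids.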

| EC50 | SMILES |
| --- | --- |
| ≤ 50 nM | COc1ccc([C@H]2CC[C@H](CN(c3cc(-c4coc(C(C)C)n4)ccn3)C(=O)[C@H]3CC[C@H](OC(=O)NC4COC4)CC3)CC2)cc1C [Compound 2.52, trans-4-((4-(2-Isopropyloxazol-4-yl)pyridin-2-yl)(((trans)-4-(4-methoxy-3-methylphenyl)cyclohexyl)methyl)carbamoyl)cyclohexyl oxetan-3-ylcarbamate] |
| ≤ 50 nM | COc1ccc([C@H]2CC[C@H](CN(c3cc(-c4coc(C5CC5)n4)ccn3)C(=O)[C@H]3CC[C@H](OC(=O)NC4COC4)CC3)CC2)cc1C [Compound 2.53, trans-4-((4-(2-Cyclopropyloxazol-4-yl)pyridin-2-yl)(((trans)-4-(4-methoxy-3-methylphenyl)cyclohexyl)methyl)carbamoyl)cyclohexyl oxetan-3-ylcarbamate] |
| ≤ 50 nM | COc1ccc([C@H]2CC[C@H](CN(c3cc(-c4cnc(C5CC5)s4)ccn3)C(=O)[C@H]3CC[C@H](OC(=O)NC4COC4)CC3)CC2)cc1C [Compound 2.54, trans-4-((4-(2-Cyclopropylthiazol-5-yl)pyridin-2-yl)(((trans)-4-(4-methoxy-3-methylphenyl)cyclohexyl)methyl)carbamoyl)cyclohexyl oxetan-3-ylcarbamate] |
| ≤ 50 nM | COc1ccc([C@H]2CC[C@H](CN(c3cc(-c4cnc(C(C)C)s4)ccn3)C(=O)[C@H]3CC[C@H](OC(=O)NC4COC4)CC3)CC2)cc1C [Compound 2.55, trans-4-((4-(2-Isopropylthiazol-5-yl)pyridin-2-yl)(((trans)-4-(4-methoxy-3-methylphenyl)cyclohexyl)methyl)carbamoyl)cyclohexyl oxetan-3-ylcarbamate] |
| ≤ 50 nM | COc1ccc([C@H]2CC[C@H](CN(c3cc(-c4cc(C(C)C)on4)ccn3)C(=O)[C@H]3CC[C@H](OC(=O)N4CC(O)C4)CC3)CC2)cc1C [Compound 2.56, trans-4-((4-(5-Isopropylisoxazol-3-yl)pyridin-2-yl)(((trans)-4-(4-methoxy-3-methylphenyl)cyclohexyl)methyl)carbamoyl)cyclohexyl 3-hydroxyazetidine-1-carboxylate] |
| ≤ 50 nM | COc1ccc([C@H]2CC[C@H](CN(c3cc(-c4cnn(C(F)(F)F)c4)ccn3)C(=O)[C@H]3CC[C@H](OC(=O)N4CC(O)C4)CC3)CC2)cc1C [Compound 2.57, trans-4-((((trans)-4-(4-Methoxy-3-methylphenyl)cyclohexyl)methyl) (4-(1-(trifluoromethyl)-1H-pyrazol-4-yl)pyridin-2-yl)carbamoyl)cyclohexyl 3-hydroxyazetidine-1-carboxylate] |
| 50 to 1000 nM | COc1ccc([C@H]2CC[C@H](CN(c3cc(-c4cnn(C(F)(F)F)c4)ccn3)C(=O)[C@H]3CC[C@H](OC(=O)NCC(C)(C)O)CC3)CC2)cc1C [Compound 2.58, trans-4-((((trans)-4-(4-Methoxy-3-methylphenyl)cyclohexyl)methyl) (4-(1-(trifluoromethyl)-1H-pyrazol-4-yl)pyridin-2-yl)carbamoyl)cyclohexyl (2-hydroxy-2-methylpropyl)carbamate] |
| ≤ 50 nM | COc1ccc([C@H]2CC[C@H](CN(c3cc(-c4ccc(N(C)C)nc4)ccn3)C(=O)[C@H]3CC[C@H](OC(=O)N4CC(O)C4)CC3)CC2)cc1C [Compound 3, trans-4-((6-(Dimethylamino)-[3,4′-bipyridine]-2′-yl)((trans-4-(4-methoxy-3-methylphenyl)cyclohexyl)methyl)carbamoyl)cyclohexyl 3-hydroxyazetidine-1-carboxylate] |
| ≤ 50 nM | COc1ccc([C@H]2CC[C@H](CN(c3cc(-c4cnc(N(C)C)nc4)ccn3)C(=O)[C@H]3CC[C@H](OC(=O)N4CC(O)C4)CC3)CC2)cc1C [Compound 3.01, trans-4-((4-(2-(Dimethylamino)pyrimidin-5-yl)pyridin-2-yl)((trans-4-(4-methoxy-3-methylphenyl)cyclohexyl)methyl)carbamoyl) cyclohexyl 3-hydroxyazetidine-1-carboxylate] |
| ≤ 50 nM | COc1ccc(C23CCC(CN(c4cc(-c5cnn(C(C)C)c5)ccn4)C(=O)[C@H]4CC[C@H](OC(=O)N5CC(O)C5)CC4)(CC2)CC3)cc1C [Compound 4, 4-((4-(1-Isopropyl-1H-pyrazol-4-yl)pyridin-2-yl)((4-(4-methoxy-3-methylphenyl)bicyclo[2.2.2]octan-1-yl)methyl)carbamoyl)cyclohexyl 3-hydroxyazetidine-trans-1-carboxylate] |
| ≤ 50 nM | COc1ccc(C23CCC(CN(c4cc(-c5cnc(C6CC6)s5)ccn4)C(=O)[C@H]4CC[C@H](OC(=O)N5CC(O)C5)CC4)(CC2)CC3)cc1C [Compound 4.01, 4-((4-(2-Cyclopropylthiazol-5-yl)pyridin-2-yl)((4-(4-methoxy-3-methylphenyl)bicyclo[2.2.2]octan-1-yl)methyl)carbamoyl) cyclohexyl 3-hydroxyazetidine-trans-1-carboxylate] |
| ≤ 50 nM | COc1ccc(C23CCC(CN(c4cc(-c5coc(C6CC6)n5)ccn4)C(=O)[C@H]4CC[C@H](OC(=O)N5CC(O)C5)CC4)(CC2)CC3)cc1C [Compound 4.02, 4-((4-(2-Cyclopropyloxazol-4-yl)pyridin-2-yl)((4-(4-methoxy-3-methylphenyl)bicyclo[2.2.2]octan-1-yl)methyl)carbamoyl) cyclohexyl 3-hydroxyazetidine-trans-1-carboxylate] |
| ≤ 50 nM | CNC(=O)O[C@H]1CC[C@H](C(=O)N(CC23CCC(c4ccc(OC)c(C)c4)(CC2)CC3)c2cc(-c3cnn(C(C)C)c3)ccn2)CC1 [Compound 4.03, 4-((4-(1-Isopropyl-1H-pyrazol-4-yl)pyridin-2-yl)((4-(4-methoxy-3-methylphenyl)bicyclo [2.2.2]octan-1-yl)methyl)carbamoyl)cyclohexyl trans-methylcarbamate] |
| ≤ 50 nM | COc1ccc(C23CCC(CN(c4cc(-c5cnn(C(C)C)c5)ccn4)C(=O)[C@H]4CC[C@H](OC(=O)NC(C)C)CC4)(CC2)CC3)cc1C [Compound 4.04, 4-((4-(1-Isopropyl-1H-pyrazol-4-yl)pyridin-2-yl)((4-(4-methoxy-3-methylphenyl)bicyclo [2.2.2]octan-1-yl)methyl)carbamoyl)cyclohexyl trans-isopropylcarbamate] |
| ≤ 50 nM | COc1ccc(C23CCC(CN(c4cc(-c5cnn(C(C)C)c5)ccn4)C(=O)[C@H]4CC[C@H](OC(=O)NCCO)CC4)(CC2)CC3)cc1C [Compound 4.05, 4-((4-(1-Isopropyl-1H-pyrazol-4-yl)pyridin-2-yl)((4-(4-methoxy-3-methylphenyl)bicyclo [2.2.2]octan-1-yl)methyl)carbamoyl)cyclohexyl (2-hydroxyethyl)trans-carbamate] |
| ≤ 50 nM | COc1ccc(C23CCC(CN(c4cc(-c5cnn(C(C)C)c5)ccn4)C(=O)[C@H]4CC[C@H](OC(=O)NCC(C)(C)O)CC4)(CC2)CC3)cc1C [Compound 4.06, 4-((4-(1-Isopropyl-1H-pyrazol-4-yl)pyridin-2-yl)((4-(4-methoxy-3-methylphenyl)bicyclo [2.2.2]octan-1-yl)methyl)carbamoyl)cyclohexyl (2-hydroxy-2-methylpropyl)trans-carbamate] |
| ≤ 50 nM | COc1ccc(C23CCC(CN(c4cc(-c5cnn(C(C)C)c5)ccn4)C(=O)[C@H]4CC[C@H](OC(=O)NCCCO)CC4)(CC2)CC3)cc1C [Compound 4.07, 4-((4-(1-Isopropyl-1H-pyrazol-4-yl)pyridin-2-yl)((4-(4-methoxy-3-methylphenyl)bicyclo [2.2.2]octan-1-yl)methyl)carbamoyl)cyclohexyl (3-hydroxypropyl)trans-carbamate] |
| ≤ 50 nM | COc1ccc(C23CCC(CN(c4cc(-c5cnn(C(C)C)c5)ccn4)C(=O)[C@H]4CC[C@H](OC(=O)NCCC(C)(C)O)CC4)(CC2)CC3)cc1C [Compound 4.08, 4-((4-(1-Isopropyl-1H-pyrazol-4-yl)pyridin-2-yl)((4-(4-methoxy-3-methylphenyl)bicyclo [2.2.2]octan-1-yl)methyl)carbamoyl)cyclohexyl (3-hydroxy-3-methylbutyl)trans-carbamate] |
| ≤ 50 nM | COc1ccc(C23CCC(CN(c4cc(-c5cnn(C(C)C)c5)ccn4)C(=O)[C@H]4CC[C@H](OC(=O)N5CC(CO)C5)CC4)(CC2)CC3)cc1C [Compound 4.09, 4-((4-(1-Isopropyl-1H-pyrazol-4-yl)pyridin-2-yl)((4-(4-methoxy-3-methylphenyl)bicyclo [2.2.2]octan-1-yl)methyl)carbamoyl)cyclohexyl 3-(hydroxymethyl) azetidine-trans-1-carboxylate] |
